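Where inhibition never reached the appropriate level, the endpoint shown equals the highest concentration tested. Otherwise, values were interpolated linearly from a five-concentration, 48-hour dose response in 96-well plates. GI50 marks 50% less growth. Definition used: TGI = concentration required for complete inhibition of growth.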
Tests used:
Assay in all cases: NCI tumour cell line growth inhibition, 48 h
OVCAR-8 ovarian = test system: OVCAR-8 ovarian
CCRF-CEM leukemia = test system: CCRF-CEM leukemia
SF-268 CNS = test system: SF-268 CNS
MDA-MB-468 breast = test system: MDA-MB-468 breast
EKVX NSCLC = test system: EKVX NSCLC
MALME-3M melanoma = test system: MALME-3M melanoma
SK-MEL-5 melanoma = test system: SK-MEL-5 melanoma
RXF 393 renal = test system: RXF 393 renal
MDA-MB-231 breast = test system: MDA-MB-231 breast
DU-145 prostate = test system: DU-145 prostate
KM12 colon = test system: KM12 colon
TK-10 renal = test system: TK-10 renal
MDA-MB-435 = test system: MDA-MB-435
HCT-116 colon = test system: HCT-116 colon
NCI-H226 lung = test system: NCI-H226 lung
SK-MEL-28 melanoma = test system: SK-MEL-28 melanoma
HOP-92 NSCLC = test system: HOP-92 NSCLC
NCI-H522 lung = test system: NCI-H522 lung
A549 NSCLC = test system: A549 NSCLC
M14 melanoma = test system: M14 melanoma
HOP-62 NSCLC = test system: HOP-62 NSCLC
SR leukemia = test system: SR leukemia
IGROV1 ovarian = test system: IGROV1 ovarian
CAKI-1 renal = test system: CAKI-1 renal
SF-295 CNS = test system: SF-295 CNS
BT-549 breast = test system: BT-549 breast
HL-60(TB) leukemia = test system: HL-60(TB) leukemia
OVCAR-4 ovarian = test system: OVCAR-4 ovarian
UO-31 renal = test system: UO-31 renal
NCI/ADR-RES ovarian = test system: NCI/ADR-RES ovarian
SK-MEL-2 melanoma = test system: SK-MEL-2 melanoma
COLO 205 colon = test system: COLO 205 colon
786-0 renal = test system: 786-0 renal
SW-620 colon = test system: SW-620 colon
HS 578T breast = test system: HS 578T breast
PC-3 prostate = test system: PC-3 prostate
SN12C renal = test system: SN12C renal
NCI-H460 lung = test system: NCI-H460 lung
ACHN renal = test system: ACHN renal
HCC-2998 colon = test system: HCC-2998 colon
UACC-62 melanoma = test system: UACC-62 melanoma
SNB-19 CNS = test system: SNB-19 CNS
UACC-257 melanoma = test system: UACC-257 melanoma
U251 CNS = test system: U251 CNS
RPMI-8226 leukemia = test system: RPMI-8226 leukemia
LOX IMVI melanoma = test system: LOX IMVI melanoma
T-47D breast = test system: T-47D breast
K-562 leukemia = test system: K-562 leukemia
OVCAR-3 ovarian = test system: OVCAR-3 ovarian
SK-OV-3 ovarian = test system: SK-OV-3 ovarian
HT29 colon = test system: HT29 colon
MCF7 breast = test system: MCF7 breast
SNB-75 CNS = test system: SNB-75 CNS
OVCAR-5 ovarian = test system: OVCAR-5 ovarian
HCT-15 colon = test system: HCT-15 colon
A498 renal = test system: A498 renal
SF-539 CNS = test system: SF-539 CNS
MOLT-4 leukemia = test system: MOLT-4 leukemia
NCI-H23 lung = test system: NCI-H23 lung

C#CCN(C)CCCOc1ccc(N(CC)C(=O)c2cc(C(C)C)c(O)cc2O)cc1Cl
GI50 (OVCAR-8 ovarian): 219 nM
TGI (OVCAR-8 ovarian): 15600 nM
GI50 (CCRF-CEM leukemia): 85.7 nM
TGI (CCRF-CEM leukemia): 13300 nM
GI50 (SF-268 CNS): 1660 nM
TGI (SF-268 CNS): 23900 nM
GI50 (MDA-MB-468 breast): 115 nM
TGI (MDA-MB-468 breast): 462 nM
GI50 (EKVX NSCLC): 484 nM
TGI (EKVX NSCLC): 8530 nM
GI50 (MALME-3M melanoma): 207 nM
TGI (MALME-3M melanoma): 1580 nM
GI50 (SK-MEL-5 melanoma): 397 nM
TGI (SK-MEL-5 melanoma): 1790 nM
GI50 (RXF 393 renal): 917 nM
TGI (RXF 393 renal): 12500 nM
GI50 (MDA-MB-231 breast): 230 nM
TGI (MDA-MB-231 breast): 2750 nM
GI50 (DU-145 prostate): 59.5 nM
TGI (DU-145 prostate): 15300 nM
GI50 (KM12 colon): 111 nM
TGI (KM12 colon): 10500 nM
GI50 (TK-10 renal): 195 nM
TGI (TK-10 renal): 12300 nM
GI50 (MDA-MB-435): 174 nM
TGI (MDA-MB-435): 12000 nM
GI50 (HCT-116 colon): 138 nM
TGI (HCT-116 colon): 13300 nM
GI50 (NCI-H226 lung): 604 nM
TGI (NCI-H226 lung): 17900 nM
GI50 (SK-MEL-28 melanoma): 413 nM
TGI (SK-MEL-28 melanoma): 12700 nM
GI50 (HOP-92 NSCLC): 446 nM
TGI (HOP-92 NSCLC): 2700 nM
GI50 (NCI-H522 lung): 121 nM
TGI (NCI-H522 lung): 5480 nM
GI50 (A549 NSCLC): 146 nM
TGI (A549 NSCLC): 15000 nM
GI50 (M14 melanoma): 462 nM
TGI (M14 melanoma): 13000 nM
GI50 (HOP-62 NSCLC): 400 nM
TGI (HOP-62 NSCLC): 19000 nM
GI50 (SR leukemia): 48.3 nM
TGI (SR leukemia): 8500 nM
GI50 (IGROV1 ovarian): 193 nM
TGI (IGROV1 ovarian): 13600 nM
GI50 (CAKI-1 renal): 350 nM
TGI (CAKI-1 renal): 14600 nM
GI50 (SF-295 CNS): 384 nM
TGI (SF-295 CNS): 12600 nM
GI50 (BT-549 breast): 1750 nM
TGI (BT-549 breast): 14300 nM
GI50 (HL-60(TB) leukemia): 73 nM
TGI (HL-60(TB) leukemia): 2720 nM
GI50 (OVCAR-4 ovarian): 1630 nM
TGI (OVCAR-4 ovarian): 19400 nM
GI50 (UO-31 renal): 156 nM
TGI (UO-31 renal): 13200 nM
GI50 (NCI/ADR-RES ovarian): 339 nM
TGI (NCI/ADR-RES ovarian): 7320 nM
GI50 (SK-MEL-2 melanoma): 979 nM
TGI (SK-MEL-2 melanoma): 15500 nM
GI50 (COLO 205 colon): 3080 nM
TGI (COLO 205 colon): 13400 nM
GI50 (786-0 renal): 1370 nM
TGI (786-0 renal): 17400 nM
GI50 (SW-620 colon): 192 nM
TGI (SW-620 colon): 13800 nM
GI50 (HS 578T breast): 1560 nM
TGI (HS 578T breast): 21100 nM
GI50 (PC-3 prostate): 232 nM
TGI (PC-3 prostate): 14700 nM
GI50 (SN12C renal): 105 nM
TGI (SN12C renal): 8280 nM
GI50 (NCI-H460 lung): 68.7 nM
TGI (NCI-H460 lung): 10900 nM
GI50 (ACHN renal): 105 nM
TGI (ACHN renal): 12700 nM
GI50 (HCC-2998 colon): 273 nM
TGI (HCC-2998 colon): 1910 nM
GI50 (UACC-62 melanoma): 174 nM
TGI (UACC-62 melanoma): 793 nM
GI50 (SNB-19 CNS): 430 nM
TGI (SNB-19 CNS): 13400 nM
GI50 (UACC-257 melanoma): 434 nM
TGI (UACC-257 melanoma): 11400 nM
GI50 (U251 CNS): 399 nM
TGI (U251 CNS): 15100 nM
GI50 (RPMI-8226 leukemia): 294 nM
TGI (RPMI-8226 leukemia): 3170 nM
GI50 (LOX IMVI melanoma): 139 nM
TGI (LOX IMVI melanoma): 359 nM
GI50 (T-47D breast): 88.8 nM
TGI (T-47D breast): 11900 nM
GI50 (K-562 leukemia): 91.4 nM
TGI (K-562 leukemia): 23000 nM
GI50 (OVCAR-3 ovarian): 595 nM
TGI (OVCAR-3 ovarian): 14900 nM
GI50 (SK-OV-3 ovarian): 52.1 nM
TGI (SK-OV-3 ovarian): 12400 nM
GI50 (HT29 colon): 2970 nM
TGI (HT29 colon): 13100 nM
GI50 (MCF7 breast): 56.1 nM
TGI (MCF7 breast): 13700 nM
GI50 (SNB-75 CNS): 947 nM
TGI (SNB-75 CNS): 16100 nM
GI50 (OVCAR-5 ovarian): 482 nM
TGI (OVCAR-5 ovarian): 16000 nM
GI50 (HCT-15 colon): 94.8 nM
TGI (HCT-15 colon): 12200 nM
GI50 (A498 renal): 679 nM
TGI (A498 renal): 15500 nM
GI50 (SF-539 CNS): 361 nM
TGI (SF-539 CNS): 12800 nM
GI50 (MOLT-4 leukemia): 139 nM
TGI (MOLT-4 leukemia): 13200 nM
GI50 (NCI-H23 lung): 346 nM
TGI (NCI-H23 lung): 13900 nM

From PubChem BioAssay (NCI)
